According to article PMC8348403 (Molecules, 2021):
Where two headings read alike, the source gives them in different places. Blank lines part the entries; values can stand above or below the compound they belong to.

Key:
[1] = set-up: method as in PMID 19107952; settings: administration during pregnancy; cited from earlier work
lung tissue = test system: lung tissue; set-up: method as in PMID 26148346; settings: treated mice; cited from earlier work
[2] = set-up: method as in PMID 23190017, PMID 20371637; settings: human intestinal microsomes; in vitro and in humans; cited from earlier work
[3] = test system: collagen-induced arthritis; set-up: method as in PMID 17537677; settings: rodents; cited from earlier work
[4] = assay type: in vitro ADME; settings: rat
Method: Short-term stability was evaluated at 22–25 °C for 6 h, which represented the processing time. Autosampler stability at ambient temperature for 24 h, long-term stability (−80 °C for 6 weeks), and three cycles of thaw and freeze (−80 and 25 °C) were evaluated. The actual concentrations of QCs samples (LQC, MQC, and HQC) under the stability test condition were compared against freshly prepared samples. Moreover, stock solution and working solution stability was evaluated at refrigerator temperature (4 °C) for 2 weeks.

[5] = Pharmacokinetic study of tamatinib in rats after oral fostamatinib (UPLC-MS/MS of plasma); assay type: in vivo, Wistar male rats
Method: The analysis was performed on Waters® Acquity H-Class UPLC® tandem triple quadrupole mass spectrometer (TQD) (Waters, Milford, USA). The H-Class UPLC® system contained Acquity sample manager and Acquity quaternary solvent manager. TQD was equipped with electrospray ionization (ESI) probe. Samples were detected and quantified in multiple reaction monitoring (MRM) mode. […] Mobile phase composition was 10 mM ammonium acetate and acetonitrile (10:90). The mobile phase was adjusted at 0.25 mL/min. […] Samples were vortex-mixed for 30 s, and 1 mL of MTBE was added. All samples were vortex-mixed for 1 min, then centrifuged at 8 °C for 10 min at 4500 g. After centrifugation, the upper layer was transferred to 2 mL tubes and dried using a vacuum concentrator at 40 °C. The residue was reconstituted with 100 µL of the mobile phase and a volume of 5 µL was injected into the UPLC–MS/MS. Eight Wistar male rats weighing 210 ± 20 g (aged about 2 months) were provided by National Organization for Drug Control and Research, Cairo, Egypt. Rats were placed in cages in optimum conditions of humidity (40–60%) and temperature (22–26 °C) with regular 12 h day-night cycle. No diet was available for animals for 10 h prior and 1 h post drug administration. Water was available ad libitum. Rats were administered orally (using the gavage technique) 12.5 mg/kg (the middle dose used in the work of Clemens et al.) fostamatinib as a suspension in 1% sodium carboxymethylcellulose. Under light anesthesia, blood samples (0.3 mL) were collected from orbital sinus, in heparinized tube, at different time points; 0, 0.5, 1.0, 2.0, 3.0, 4.0, 6.0, 8.0, 12.0, 24.0, and 48.0 h after drug administration. Plasma samples were obtained by centrifugation at 3000 g for 3 min and kept frozen at −80 °C until analysis. Non-compartmental analysis with the trapezoidal rule was used for estimation of pharmacokinetic parameters. These parameters were calculated using WinNonlin software (Pharsight Co., Mountain View, CA, USA).

[6] = test system: experimental nephrotoxic nephritis; set-up: method as in PMID 19959716; settings: rats; cited from earlier work
[7] = male, Wistar, rat, plasma, po, 12.5 mg/kg

Compound: COc1cc(Nc2ncc(F)c(Nc3ccc4c(n3)N(COP(=O)(O)O)C(=O)C(C)(C)O4)n2)cc(OC)c1OC [fostamatinib, Fostamatinib sodium]
developmental toxicity [1]: caused urogenital and cardiovascular abnormalities
fibrosis and inflammation in lung tissue (lung tissue): less fibrosis and inflammation in lung tissue
transformation to tamatinib [2]: rapidly transformed to tamatinib

Accuracy ([4]; 0.3 ng/mL): 90.0%
Measured Concentration ([4]; 0.3 ng/mL): 0.27 ± 0.01 ng/mL
Accuracy ([4]; 75 ng/mL): 89.9%
Measured Concentration ([4]; 75 ng/mL): 67.40 ± 2.79 ng/mL
Accuracy ([4]; 750 ng/mL): 86.6%
Measured Concentration ([4]; 750 ng/mL): 649.20 ± 69.95 ng/mL
Accuracy ([4]; 6 weeks, 0.3 ng/mL): 86.7%
Measured Concentration ([4]; 6 weeks, 0.3 ng/mL): 0.26 ± 0.02 ng/mL
Accuracy ([4]; 6 weeks, 75 ng/mL): 88.1%
Measured Concentration ([4]; 6 weeks, 75 ng/mL): 66.10 ± 7.77 ng/mL
Accuracy ([4]; 6 weeks, 750 ng/mL): 85.4%
Measured Concentration ([4]; 6 weeks, 750 ng/mL): 640.60 ± 73.94 ng/mL
Accuracy ([4]; 6 h, 0.3 ng/mL): 86.7%
Measured Concentration ([4]; 6 h, 0.3 ng/mL): 0.26 ± 0.03 ng/mL
Accuracy ([4]; 6 h, 75 ng/mL): 86.2%
Measured Concentration ([4]; 6 h, 75 ng/mL): 64.65 ± 3.47 ng/mL
Accuracy ([4]; 6 h, 750 ng/mL): 85.3%
Measured Concentration ([4]; 6 h, 750 ng/mL): 640.10 ± 43.19 ng/mL
Accuracy ([4]; 24 h, 0.3 ng/mL): 86.7%
Measured Concentration ([4]; 24 h, 0.3 ng/mL): 0.26 ± 0.02 ng/mL
Accuracy ([4]; 24 h, 75 ng/mL): 85.3%
Measured Concentration ([4]; 24 h, 75 ng/mL): 64.00 ± 5.11 ng/mL
Accuracy ([4]; 24 h, 750 ng/mL): 87.2%
Measured Concentration ([4]; 24 h, 750 ng/mL): 654.34 ± 97.10 ng/mL
AUC(0-inf) [5, 7]: 6420 ± 1500 ng·h/mL
Cmax [5, 7]: 653 ± 70.4 ng/mL
MRT [5, 7]: 19.8 ± 2.9 h
Tmax [5, 7]: 3 h
half-life [5, 7]: 18.3 ± 0.9 h
AUC(0-t) ([5]; male, Wistar, rat, plasma, po, 12.5 mg/kg, read-out: AUC0–48): 5640 ± 1210 ng·h/mL
Clearance ([5]; tamatinib in plasma, oral fostamatinib 12.5 mg/kg, rats, mean ± SD): 0.030 ± 0.001 L/h
Compound: COc1cc(Nc2ncc(F)c(Nc3ccc4c(n3)NC(=O)C(C)(C)O4)n2)cc(OC)c1OC [Tamatinib, tamatinib]
effect in collagen-induced arthritis [3]: progressive improvement in histopathology, clinical scores, and joint radiography
effect in experimental nephrotoxic nephritis [6]: reduced glomerular macrophage infiltration, tissue injury, and proteinuria
